Data published in US20240358681A1, “METHODS OF USE OF PPAR AGONIST COMPOUNDS AND PHARMACEUTICAL COMPOSITIONS THEREOF” (Mitobridge, Inc., priority 2021, published 2024).
Entries after “also recorded” stand apart in the source; their conditions may differ.

Tests used:
[1] = test system: aged Diet-Induced Obese (DIO) C57BL/6NTac mice; assay: Forced exhaustion running, activity and body composition in aged DIO mice; assay type: in vivo, mouse; conditions: 30 mg/kg
Description: All animal studies were performed in accordance with Charles River Laboratories animal welfare protocols. Male Diet-Induced Obese (DIO) C57BL/6NTac mice 28 weeks of age were fed a high fat diet. 20 mice were randomized based on bodyweight into two cohorts of 10 mice each. Five mice were assigned to each treatment group in each cohort (i) vehicle or (ii) Compound (I) at 30 mg/kg via (n=10 total animals per treatment). Groups were dosed orally by gavage, once daily for 45 days at the start of the dark cycle. Mice were acclimatized to the treadmill room for one hour on days of training or endurance runs. After an initial 5 min exploration period the treadmill belt moved at 5 m/min for 10 min with the motivation grid intensity set to 0.46 mA. Mice required a few visits to the grid to learn to walk/run on the moving belt and avoid the electric grid shock. After two acclimatization periods the mice learned to avoid the electric grid and stay on the moving belt, with fewer visits to the electric grid. The maximum speed for the endurance run was capped at 16.5 m/min based on speed acclimation runs, which represents the speed at which 25% of animals are running in the top ⅔ of the treadmill at a 5° slope. The mice were considered exhausted if they stayed on the electric grid with no limbs on the treadmill belt for 10 seconds.
Endurance was calculated as a Fatigue Index; this accounts for distance traveled, time on the treadmill, the number of breaks in running, and the length of those breaks. The cumulative number of stimulations for individual animals was plotted over time and the area under the curve (AUC) was calculated. AUC was divided by the distance individual animals completed during the course of the fatigue run to obtain the Fatigue Index. Voluntary activity is defined as the total number of X and Y axis laser beam breaks and rearing is defined as the total number of Z axis breaks per treatment group.

[2] = 52-week monkey GLP toxicity study; assay type: in vivo
[3] = test system: LHON/Leigh cells; assay: Mitochondrial fatty acid oxidation assay by high-resolution respirometry (palmitate-mediated OXPHOS); assay type: cell-based, human; conditions: Leigh/LHON cell line, 24 hours treatment; FIG. 4B
Description: (§1) LHON/Leigh cells were treated with DMSO or Compound (I) in complete media supplemented with 0.5 mM carnitine for 24 hours prior to assaying. Treated cells were trypsinized, collected in Krebs-Henseleit Buffer (KHB) and pelleted.
(§2) Palmitate-mediated OXPHOS was measured using an Oxygraph-2k (Oroboros Instruments). Cells (1×10^6) in KHB were loaded into each chamber with 250 μM BSA or BSA-conjugated palmitate. KHB was added to reach a final volume of 2 mL. Respiration was measured at 37° C. as previously described in Zhang, Z., et al., Primary respiratory chain disease causes tissue-specific dysregulation of the global transcriptome and nutrient-sensing signaling network. (1932-6203). Briefly, BSA and BSA-conjugated palmitate treated cells were analyzed simultaneously in two separate chambers. […]
(§3) Data were analyzed using DatLab6 software. […] Non-mitochondrial respiration was measured after addition of Rotenone and Antimycin A sequentially (ROX, residual oxygen consumption, background) and subtracted from maximal respiration values. […]

[4] = test system: PMM patient fibroblasts; assay: Fatty acid OXPHOS in PMM patient fibroblasts (FIG. 4B, all lines); assay type: cell-based, human; conditions: 3, 9 and 30 nM
Description: as §1, §2, §3
FAO was measured using a Seahorse XF96 (Seahorse Biosciences). […]

[5] = 5 weeks, vs vehicle, FIG. 6D-6E

Cc1cnc(-c2ccc(C(F)(F)F)cc2)n1Cc1ccccc1OCCC[C@@H](C)CC(=O)O [Compound (I), (R)-3-Methyl-6-(2-((5-methyl-2-(4-(trifluoromethyl)phenyl)-1H-imidazol-1-yl)methyl)-phenoxy)hexanoic acid]
rate of falls in the motivational grid ([1]; 5 weeks, FIG. 5F): decrease
run distance ([1]; 5 weeks, FIG. 5H): no change
Fatigue Index ([1]; 5 weeks, vs vehicle, FIG. 5I): less fatigued
rearing [1, 5]: trend towards increased
voluntary activity [1, 5]: trend towards increased; also recorded: No statistically significant differences
body weight ([1]; during the study, FIG. 6B): did not alter
body composition ([1]; during the study, FIG. 6C): did not alter; also recorded: No statistically significant differences
no observed adverse effect level (NOAEL) [2]: highest tested dose
fatty acid-mediated OXPHOS [3]: significantly increased
fatty acid OXPHOS [4]: increased
